EP0099122A2, “Compositions comprising pepstatin and an histamine H2-receptor antagonist having an enhanced antiulcer activity” (Bristol-Myers Company, priority 1982, dated 1984)
Marks after values point to notes of the source that are not given here.

Legend:
[1] = tested on: Gastric Fistula Rat; assay: Gastric antisecretory activity in the Gastric Fistula Rat; format: in vivo, Long Evans rats; details: sc, 95% confidence limits in parentheses
Description: Determination of Gastric Antisecretory Activity in the Gastric Fistula Rat
Male Long Evans rats weighing about 240-260 grams at the time of cannula implantation are used. […] The fistula components are designed and the operative procedure is carried out exactly as described in the above reference. Post operatively the animals are individually housed in solid bottom cages with sawdust and are allowed food and water ad libitum throughout the entire recovery period. Animals are not used for test purposes for at least 15 days after the operative procedure.
The animals are fasted but allowed water ad libitum for 20 hours before the testing procedure is to begin. Immediately prior to collection, the cannula is opened and the. stomach washed gently with 30-40 mL of warm saline or distilled water to remove any residual contents. The catheter is then screwed into the cannula in place of the plugging screw and the rat is placed in a clear plastic rectangular cage measuring 40 cm long, 15 cm wide and 13 cm high. The bottom of the cage has a slit approximately 1.5 cm wide and 25 cm long running down the center to accommodate the catheter which hangs through it. In this way the rat is not restricted and can move -freely about the cage during collection periods. The remainder of the assay is carried out as described by Ridley et al. [Research Comm. Chem. Path.
Gastric secretions collected during the first hour after washing the stomach are discarded as they may be contaminated. For oral evaluation, the catheter is then removed from the cannula and replaced with the plugging screw. Water (2 mL/kg) is administered orally via gastric intubation and the animal is returned to the cage for 45 minutes. After this time the plugging screw is removed and replaced with a catheter to which a small plastic vial has been attached to collect the gastric secretions. A two hour sample is collected (this represents the control secretion), the catheter removed and.replaced with the plugging screw. The test drug is now administered orally in a volume of 2 mL/kg via gastric intubation. Forty-five minutes later the plugging screw is again removed, replaced with the catheter attached to a small plastic vial and another 2 hour sample is collected. The secretions in the second sample are compared to those of the control sample in order to determine thee effects of the test drug.
When test compounds are to be evaluated parenterally, the animal is injected ip or sc with the test compound vehicle in a volume of 2 mL/kg immediately after discarding the initial 60 minute collection. A two hour sample is collected (control secretion) and the animals are injected either ip or sc with the test compound in a volume of 2 mL/kg. An additional two hour sample is collected and its secretions are compared to those of the control period to determing drug effects.
The samples are centrifuged in a graduated tube for volume determination. Titratable acidity is measured by titrating a one mL sample to pH 7.0 with 0.02N NaOH, using an Autoburet and an electrometric pH meter (Radiometer). Titratable acid output is calculated in microequivalents by multiplying the volume in milliliters by the acid concentration in milliequivalents per liter.
Results are expressed as percent inhibition relative to control readings. Dose response curves are constructed and ED50 values are calculated by regression analyses. At least three rats are used at each dosage level and a minimum of three dosage levels are utilized for determination of a dose response curve.

[2] = tested on: Heidenhain Pouch Dog; assay: Gastric antisecretory activity in the Heidenhain Pouch Dog; format: in vivo, dogs; details: 95% confidence limits in parentheses; for ED50: Canis lupus familiaris
Description: Determination of Gastric Antisecretory […] in the Heidenhain Pouch Dog Prior to surgery, hematology and blood chemistry profiles are obtained and an assessment made as to the general health of selected female dogs. Dogs are vaccinated with Tissue […]-Moore) and housed in general animal quarters for four weeks' observation so incipient diseases may become apparent. Dogs are fasted with water ad libitum 24 hours prior to surgery. […] Subsequent anesthesia is maintained with methoxy- flurane (Pitman-Moore). A mid-line linea alba incision from xiphoid to umbilicus provides good exposure and ease of closure. The stomach is pulled up into the operative fields the greater curvature stretched out at multiple points and clamps placed along the selected line of incision. The pouch is made from the corpus of the stomach so that true parietal cell juice is obtained. About 30% of the corpus volume is resected. The cannula is made of light-weight, biologically-inert material such as nylon or Delrin with dimensions and attachments after DeVito and […] fJ. Appl. Physiol., 14, 138 (1959)]. Post operatively, dogs are medicated with antibiotics and an analgesic. They are allowed 2-3 months for recovery. Experiments are carried out in the following way: […] The dogs are placed in a sling and a saphenous vein cannulated for drug administration. Histamine as the base (100 μg/kg/hr) and chlorpheniramine maleate (0.25 mg/kg/hr) are infused continuously (in a volume of 6 mL/hr) with a Harvard infusion pump. Ninety minutes' infusion are allowed for the dogs to reach a steady state of acid output. At this time the drug or normal saline (control) is administered concomitantly with the secretagogue in a volume of 0.5 mL/kg over a 30 second period. When oral studies are to be carried out, the drug is administered via gastric gavage in a volume of 5 mL/kg. Infusion of the secretagogue is continued and 15 minute samples of the gastric juice are taken for 4.5 hours. Each sample is measured to the nearest 0.5 mL and titratable acidity is determined by titrating a 1 mL sample to pH 7.0 with 0.2N NaOH, using an Autoburet and an electrometric pH meter '(Radiometer). Titratable acid output is calculated in microequivalents by multiplying the volume in milliliters by the acid concentration in milliequivalents per liter. Results are expressed as percent inhibition relative to control readings. Dose response curves are constructed and ED50 values are calculated by regression analyses. From 3 to 5 dogs are used at each dose level and a minimum of three dosage levels are utilized for determination of a dose response curve.

[3] = tested on: gastric acid secretion; assay: Inhibition of gastric acid secretion relative to cimetidine, various animal studies; format: in vivo; details: inhibitors of gastric acid secretion, oral route
Description: Based on this potency difference, the oral dosage of the compounds of Examples 1 and 9 would be about 1/20 to 1/25 that of cimetidine, thus reducing the expected incidence of side effects. The usual oral dosage of cimetidine is 300 mg, given four times a day, while the usual dosage of the compounds of Examples 1 and 9 is about 12-15 mg, given four times a day. It was an object of this invention to further reduce the necessary dosage of the compounds of Formula I by the concomitant administration of a peptic activity- inhibitory amount of pepstatin. As will be shown below, such concomitant administration provides about a three-fold increase in potency compared with the administration of an equal amount of the compound of Formula I alone, thus permitting a further three-fold reduction in the dosage of the compound of Formula I.

Nc1c(NCCCOc2cccc(CN3CCCCC3)c2)c(=O)c1=O [Example 1]
ED50 ([1]; Rattus norvegicus, read-out: ED50 sc): 0.023 µmol/kg
Potency Ratio [cimetidine = 1.0] [1]: 162 (77-328)*
ED50 ([2]; INTRAVENOUS): 0.024 µmol/kg
ED50 ([2]; ORAL): 0.16 µmol/kg
Potency Ratio [cimetidine = 1.0] ([2]; INTRAVENOUS): 87 (62-117)*
Potency Ratio [cimetidine = 1.0] ([2]; ORAL): 25 (14-40)
times more potent than cimetidine [3]: 20-25
